{"source": "patent US9204653B2", "about": "“5-fluoro pyrimidine derivatives” (DOW AGROSCIENCES LLC, priority 2008, dated 2015)", "system": "Mycosphaerella graminicola; Anamorph: Septoria tritici; Bayer Code SEPTTR", "assay": "Leaf blotch of wheat, foliar fungicide treatment, one day protectant (1DP) or three day curative (3DC)", "assay_type": "in vivo, Septoria tritici on wheat plants (variety Yuma)", "conditions": "Zymoseptoria tritici", "key": {"[1]": {"conditions": "24 h, one day protectant, 25 ppm, rating of percent disease control, read-out: SETTTR 1DP 25 ppm"}, "[2]": {"conditions": "24 h, one day protectant, rating of percent disease control, read-out: SEPTTR 1DP 100 ppm"}, "[3]": {"conditions": "72 h, three day curative, 25 ppm, rating of percent disease control, read-out: SEPTTR 3DC 25 ppm"}, "[4]": {"conditions": "72 h, three day curative, rating of percent disease control, read-out: SEPTTR 3DC 100 ppm"}, "[5]": {"conditions": "24 h, one day protectant (1DP), 25 ppm, rating of percent disease control, read-out: SETTTR 1DP 25 ppm"}, "[6]": {"conditions": "24 h, one day protectant (1DP), rating of percent disease control, read-out: SEPTTR 1DP 100 ppm"}, "[7]": {"conditions": "72 h, three day curative (3DC), 25 ppm, rating of percent disease control, read-out: SEPTTR 3DC 25 ppm"}, "[8]": {"conditions": "72 h, three day curative (3DC), rating of percent disease control, read-out: SEPTTR 3DC 100 ppm"}, "[9]": {"conditions": "24 h, one day protectant (1DP), 25 ppm (first 1DP column), percent control rating, read-out: SETTTR 1DP 25 ppm"}, "[10]": {"conditions": "24 h, one day protectant (1DP), 25 ppm as printed (second 1DP column), percent control rating, read-out: SETTTR 1DP 25 ppm"}, "[11]": {"conditions": "72 h, three day curative (3DC), 25 ppm, percent control rating, read-out: SEPTTR 3DC 25 ppm"}, "[12]": {"conditions": "72 h, three day curative (3DC), percent control rating, read-out: SEPTTR 3DC 100 ppm"}, "[13]": {"conditions": "24 h, % disease control rating, one day protectant"}}, "note": "Where two headings read alike, the source gives them in different places."}
{"smiles": "Nc1nc(OCc2ccc(Cl)c(Cl)c2)ncc1F", "note": "[Compound 574]", "values": [{"measurement": "pest or weed control at 25 ppm", "setting": "[1]", "result": "76 to 100", "unit": "%"}, {"measurement": "pest or weed control at 100 ppm", "setting": "[2]", "result": "76 to 100", "unit": "%"}, {"measurement": "pest or weed control at 25 ppm", "setting": "[3]", "result": "76 to 100", "unit": "%"}, {"measurement": "pest or weed control at 100 ppm", "setting": "[4]", "result": "76 to 100", "unit": "%"}]}
{"smiles": "CC[Si](CC)(CC)Nc1nc(OCc2ccn(C)n2)ncc1F", "note": "[Compound 434]", "values": [{"measurement": "pest or weed control at 25 ppm", "setting": "[5]", "result": "76 to 100", "unit": "%"}, {"measurement": "pest or weed control at 100 ppm", "setting": "[6]", "result": "76 to 100", "unit": "%"}, {"measurement": "pest or weed control at 25 ppm", "setting": "[7]", "result": "76 to 100", "unit": "%"}, {"measurement": "pest or weed control at 100 ppm", "setting": "[8]", "result": "76 to 100", "unit": "%"}]}
{"smiles": "COc1ccccc1Oc1ncc(F)c(N)n1", "note": "[Compound 223]", "values": [{"measurement": "pest or weed control at 25 ppm", "setting": "[5]", "result": "76 to 100", "unit": "%"}, {"measurement": "pest or weed control at 100 ppm", "setting": "[6]", "result": "76 to 100", "unit": "%"}, {"measurement": "pest or weed control at 25 ppm", "setting": "[7]", "result": "76 to 100", "unit": "%"}, {"measurement": "pest or weed control at 100 ppm", "setting": "[8]", "result": "76 to 100", "unit": "%"}]}
{"smiles": "C=CCOc1ncc(F)c(/N=N/c2cc(C)ccc2C)n1", "note": "[Compound 1109]", "values": [{"measurement": "pest or weed control at 25 ppm", "setting": "[9]", "result": "0 to 25", "unit": "%"}, {"measurement": "pest or weed control at 25 ppm", "setting": "[10]", "result": "0 to 25", "unit": "%"}, {"measurement": "pest or weed control at 25 ppm", "setting": "[11]", "result": "0 to 25", "unit": "%"}, {"measurement": "pest or weed control at 100 ppm", "setting": "[12]", "result": "0 to 25", "unit": "%"}]}
{"smiles": "Fc1cnc(OCc2ccncc2)nc1NCc1cccs1", "note": "[Compound 902]", "values": [{"measurement": "pest or weed control at 200 ppm", "setting": "[13]", "result": "76 to 100", "unit": "%"}]}
{"smiles": "O=[N+]([O-])c1ccccc1SNc1nc(OCc2cc(F)c(F)c(F)c2)ncc1F", "note": "[Compound 525]", "values": [{"measurement": "pest or weed control at 25 ppm", "setting": "[5]", "result": "76 to 100", "unit": "%"}, {"measurement": "pest or weed control at 100 ppm", "setting": "[6]", "result": "76 to 100", "unit": "%"}, {"measurement": "pest or weed control at 25 ppm", "setting": "[7]", "result": "76 to 100", "unit": "%"}, {"measurement": "pest or weed control at 100 ppm", "setting": "[8]", "result": "76 to 100", "unit": "%"}]}
{"smiles": "CN(C)/C=N/c1nc(OC(=O)OCC(Cl)(Cl)Cl)ncc1F", "note": "[Compound 634]", "values": [{"measurement": "pest or weed control at 25 ppm", "setting": "[1]", "result": "76 to 100", "unit": "%"}, {"measurement": "pest or weed control at 100 ppm", "setting": "[2]", "result": "76 to 100", "unit": "%"}, {"measurement": "pest or weed control at 25 ppm", "setting": "[3]", "result": "76 to 100", "unit": "%"}, {"measurement": "pest or weed control at 100 ppm", "setting": "[4]", "result": "76 to 100", "unit": "%"}]}
{"smiles": "C=CCOc1ncc(F)c(N/N=C/C2CC2)n1", "note": "[Compound 1062]", "values": [{"measurement": "pest or weed control at 25 ppm", "setting": "[9]", "result": "0 to 25", "unit": "%"}, {"measurement": "pest or weed control at 25 ppm", "setting": "[10]", "result": "0 to 25", "unit": "%"}, {"measurement": "pest or weed control at 25 ppm", "setting": "[11]", "result": "0 to 25", "unit": "%"}, {"measurement": "pest or weed control at 100 ppm", "setting": "[12]", "result": "0 to 25", "unit": "%"}]}
{"smiles": "ONc1nc(OCc2ccccc2)ncc1F", "note": "[Compound 390]", "values": [{"measurement": "pest or weed control at 25 ppm", "setting": "[5]", "result": "76 to 100", "unit": "%"}, {"measurement": "pest or weed control at 100 ppm", "setting": "[6]", "result": "76 to 100", "unit": "%"}, {"measurement": "pest or weed control at 25 ppm", "setting": "[7]", "result": "76 to 100", "unit": "%"}, {"measurement": "pest or weed control at 100 ppm", "setting": "[8]", "result": "76 to 100", "unit": "%"}]}
{"smiles": "Cc1cnc(CNc2nc(OCc3ccc(Cl)cc3)ncc2F)cn1", "note": "[Compound 886]", "values": [{"measurement": "pest or weed control at 50 ppm", "setting": "24 h, % disease control rating, one day protectant, 50 ppm", "result": "76 to 100", "unit": "%"}, {"measurement": "pest or weed control at 200 ppm", "setting": "[13]", "result": "76 to 100", "unit": "%"}]}
{"smiles": "COc1cccc(COc2ncc(F)c(NC(=O)OCc3ccccc3)n2)c1", "note": "[Compound 531]", "values": [{"measurement": "pest or weed control at 25 ppm", "setting": "[5]", "result": "76 to 100", "unit": "%"}, {"measurement": "pest or weed control at 100 ppm", "setting": "[6]", "result": "76 to 100", "unit": "%"}, {"measurement": "pest or weed control at 25 ppm", "setting": "[7]", "result": "76 to 100", "unit": "%"}, {"measurement": "pest or weed control at 100 ppm", "setting": "[8]", "result": "76 to 100", "unit": "%"}]}
{"smiles": "COc1cccc(COc2ncc(F)c(NS(C)(=O)=O)n2)c1", "note": "[Compound 1011]", "values": [{"measurement": "pest or weed control at 25 ppm", "setting": "[9]", "result": "0 to 25", "unit": "%"}, {"measurement": "pest or weed control at 25 ppm", "setting": "[10]", "result": "0 to 25", "unit": "%"}, {"measurement": "pest or weed control at 25 ppm", "setting": "[11]", "result": "0 to 25", "unit": "%"}, {"measurement": "pest or weed control at 100 ppm", "setting": "[12]", "result": "0 to 25", "unit": "%"}]}
{"smiles": "COc1cccc(COc2ncc(F)c(NC(=S)Nc3ccccc3F)n2)c1", "note": "[Compound 639]", "values": [{"measurement": "pest or weed control at 25 ppm", "setting": "[1]", "result": "76 to 100", "unit": "%"}, {"measurement": "pest or weed control at 100 ppm", "setting": "[2]", "result": "76 to 100", "unit": "%"}, {"measurement": "pest or weed control at 25 ppm", "setting": "[3]", "result": "51 to 75", "unit": "%"}, {"measurement": "pest or weed control at 100 ppm", "setting": "[4]", "result": "76 to 100", "unit": "%"}]}
{"smiles": "CCCNC(=O)Nc1nc(OCc2ccc(C)cc2)ncc1F", "note": "[Compound 536]", "values": [{"measurement": "pest or weed control at 25 ppm", "setting": "[5]", "result": "0 to 25", "unit": "%"}, {"measurement": "pest or weed control at 100 ppm", "setting": "[6]", "result": "0 to 25", "unit": "%"}, {"measurement": "pest or weed control at 25 ppm", "setting": "[7]", "result": "26 to 50", "unit": "%"}, {"measurement": "pest or weed control at 100 ppm", "setting": "[8]", "result": "26 to 50", "unit": "%"}]}
{"smiles": "Oc1ncc(F)c(N(O)Cc2ccccc2)n1", "note": "[Compound 1094]", "values": [{"measurement": "pest or weed control at 25 ppm", "setting": "[9]", "result": "0 to 25", "unit": "%"}, {"measurement": "pest or weed control at 25 ppm", "setting": "[10]", "result": "0 to 25", "unit": "%"}, {"measurement": "pest or weed control at 25 ppm", "setting": "[11]", "result": "26 to 50", "unit": "%"}, {"measurement": "pest or weed control at 100 ppm", "setting": "[12]", "result": "26 to 50", "unit": "%"}]}
{"smiles": "N=C(NO)Nc1nc(OCc2ccccc2)ncc1F", "note": "[Compound 964, 1-[2-(Benzyloxy)-5-fluoropyrimidin-4-yl]-3-hydroxyguanidine]", "values": [{"measurement": "pest or weed control at 25 ppm", "setting": "[9]", "result": "0 to 25", "unit": "%"}, {"measurement": "pest or weed control at 25 ppm", "setting": "[10]", "result": "0 to 25", "unit": "%"}, {"measurement": "pest or weed control at 25 ppm", "setting": "[11]", "result": "0 to 25", "unit": "%"}, {"measurement": "pest or weed control at 100 ppm", "setting": "[12]", "result": "26 to 50", "unit": "%"}]}
{"smiles": "CC(C)(C)OC(=O)NNc1nc(OCc2ccccc2)ncc1F", "note": "[Compound 765]", "values": [{"measurement": "pest or weed control at 25 ppm", "setting": "[5]", "result": "0 to 25", "unit": "%"}, {"measurement": "pest or weed control at 100 ppm", "setting": "[6]", "result": "26 to 50", "unit": "%"}, {"measurement": "pest or weed control at 25 ppm", "setting": "[7]", "result": "0 to 25", "unit": "%"}, {"measurement": "pest or weed control at 100 ppm", "setting": "[8]", "result": "0 to 25", "unit": "%"}]}
